Laboratory results: US8658648B2, “Modified chloroquines with single ring moiety or fused ring moiety” (DesignMedix, Inc., priority 2008, dated 2014)
Like-named read-outs stand apart in the source and are kept apart here.

Experiments:
[1] = system: D6 (CQ^S) P. falciparum strain; test: In vitro fluorescence (Sybr Green I) assay for IC50 against D6 strain; assay type: cell-based; settings: Plasmodium falciparum, read-out: IC50-D6
Text: (§1) This method employs fluorescent detection of the level of parasitemia in cultured red blood cells and can be automated for high-throughput screening of antimalarial RCQs. This exemplary method allows the inhibitory agent (such as a MCQ) to be in contact with the parasite for an entire developmental cycle without purine starvation, which is in contrast to the traditional ^3H-hypoxanthine method (Desjardins et al. 1979. Antimicrob. Agents Chemother. 16(6):710-718, which is incorporated herein by reference in its entirety). Briefly, to perform the Smilkstein et al. method, an initial parasitemia of approximately 0.2% is attained by adding uninfected red blood cells (RBCs) to a stock culture of Plasmodium-infected RBCs. […] After a period of incubation (such as about 72 hours), a sufficient amount (e.g., 100 μL) of a fluorescent DNA binding dye-detergent mixture (e.g., Sybr Green I dye-detergent mixture) to lyse cells and bind to DNA is added to the reactions. Because uninfected RBCs have no DNA, only parasite DNA (in infected RBCs) is available for binding to the fluorescent dye (e.g., Sybr Green I). Samples are then incubated in the dark for a period of time (e.g., one hour), followed by measurement of levels of fluorescence. For Sybr Green 1, excitation and emission wavelength are 485 and 530 nm, respectively. Fluorescence readings, which represent the amount of parasite DNA in the sample, can be plotted against the Log [drug] and fit to a curve by nonlinear regression to obtain the IC50 value for the tested compound.
(§2) An in vitro fluorescence assay for determining IC50 of antimalarial drugs was performed as previously described by Smilkstein et al. (2004. Antimicrob. Agents Chemother. 48(5):1803-1806). This procedure can be automated for high-throughput screening of the antimalarial activities of RCQs described herein. This method also allows the tested agent (e.g., a MCQ) to be in contact with the parasite for an entire developmental cycle without purine starvation (which occurs with the commonly used ^3H-hypoxanthine method; see, e.g., Desjardins et al. 1979. Antimicrob. Agents Chemother. 16, (6):710-7188).
(§3) Briefly, an initial parasitemia of approximately 0.2% was attained by addition of uninfected red blood cells to a stock culture of cells infected with Dd2 (CQ^R), 7G8 (CQ^R), or D6 (CQ^S) P. falciparum strains. A 10 mM solution of a test compound (in DMSO) was prepared. The test compound (at a final concentration from 10^−11 to 10^−4 M) and infected red blood cells (at a final concentration of 2% (v/v)) were mixed in 100 μL samples in individual wells of a 96-well plate. Each sample was prepared in triplicate. A triplicate set of reactions containing CQ (instead of the test compound) was included as a control. After a 72 hour incubation period, Sybr Green I dye-detergent mixture (100 μL) was added to each reaction. The samples were further incubated for an hour in the dark, and then placed in a 96-well fluorescence plate reader (Gemini-EM, […]) and analyzed with excitation and emission wavelength bands at 485 and 530 nm, respectively. Fluorescence readings were plotted against the Log [drug], and curve fitting performed by nonlinear regression to find the IC50 value.

[2] = system: Dd2 (CQ^R) P. falciparum strain; test: In vitro fluorescence (Sybr Green I) assay for IC50 against Dd2 strain; assay type: cell-based; settings: Plasmodium falciparum, read-out: IC50-Dd2
Text: as §1, §2, §3

[3] = system: 7G8 (CQ^R) P. falciparum strain; test: In vitro fluorescence (Sybr Green I) assay for IC50 against 7G8 strain; assay type: cell-based; settings: Plasmodium falciparum, read-out: IC50-7G8
Text: as §1, §2, §3

[4] = system: mitogen-induced marine spleen lymphocytes; assay type: cell-based; settings: LC50; mouse spleen lymphocytes, 72 hours incubation, then resazurin 24 hours
Method: Mouse spleen lymphocytes were isolated from C57B1/6J mice by teasing tissues on a metallic sieve screen. […] Two hundred (200) μl isolated cells were then seeded in separate wells of a 96-well flat-bottom tissue culture plate at a density of 2×10^5 cells per well. […] After 72 hours incubation in a humidified atmosphere at 37° C. and 5% CO2, a solution of resazurin PBS was added to a final concentration 10 μM, and the plates were returned to the incubator for another 24 hours. Resazurin is a substrate which changes color in response to metabolic activity (such as that found in living cells). […] LC50 values were determined from plots of florescence versus drug concentration using non-linear regression by Prism software.

P. berghei = test: In vivo activity in mice against P. berghei (survival); settings: second 4× oral dose experiment, dosage equimolar to 30 mg/kg CQ; monitored up to 30 days
P. falciparum strain D6 = settings: cited from earlier work; further: key: S = sensitive; R = resistant; S/R = intermediate level of resistance
[5] = system: P. falciparum strain FCR3; settings: cited from earlier work; further: key: S = sensitive; R = resistant; S/R = intermediate level of resistance
P. falciparum strain W2 = settings: cited from earlier work; further: key: S = sensitive; R = resistant; S/R = intermediate level of resistance
P. falciparum strain Dd2 = settings: cited from earlier work; further: key: S = sensitive; R = resistant; S/R = intermediate level of resistance
P. falciparum strain 3D7 = settings: cited from earlier work; further: key: S = sensitive; R = resistant; S/R = intermediate level of resistance
[6] = system: P. falciparum strain TM91C235; settings: cited from earlier work; further: key: S = sensitive; R = resistant; S/R = intermediate level of resistance
P. falciparum strain 7G8 = settings: cited from earlier work; further: key: S = sensitive; R = resistant; S/R = intermediate level of resistance

IC50 ([1]; D6, Erythrocyte, 72 h) [nM]	IC50 ([2]; DD2, Erythrocyte, 72 h) [nM]	IC50 ([3]; 7G8, Erythrocyte, 72 h) [nM]	SMILES	IC50 ([1]; Erythrocyte, D6 (CQ^S) strain in infected red blood cells, 72 hour incubation) [nM]	IC50 ([2]; Erythrocyte, Dd2 (CQ^R) strain in infected red blood cells, 72 hour incubation) [nM]	IC50 ([3]; Erythrocyte, 7G8 (CQ^R) strain in infected red blood cells, 72 hour incubation) [nM]	Cytotoxicity [4] [µM]	average survival for the mice (P. berghei) [days]	Drug susceptibility of P. falciparum strain D6 (P. falciparum strain D6)	Drug susceptibility of P. falciparum strain FCR3 [5]	Drug susceptibility of P. falciparum strain W2 (P. falciparum strain W2)	Drug susceptibility of P. falciparum strain Dd2 (P. falciparum strain Dd2)	Drug susceptibility of P. falciparum strain 3D7 (P. falciparum strain 3D7)	Drug susceptibility of P. falciparum strain TM91C235 [6]	Drug susceptibility of P. falciparum strain 7G8 (P. falciparum strain 7G8)
–	–	–	Clc1ccc2c(NCCCN3CCN(c4ccccn4)CC3)ccnc2c1 [7-chloro-N-(3-(4-(pyridin-2-yl)piperazin-1-yl)propyl)quinolin-4-amine]	2.7	4.8	9.5	8.6	20	–	–	–	–	–	–	–
6.9	102	106	CCN(CC)CCCC(C)Nc1ccnc2cc(Cl)ccc12 (stereo not drawn) [Chloroquine, chloroquine]	–	–	–	–	–	S	R	R	R	S	R	R
